Data taken from patent US9468209B2, “Method for eradicating weeds with derivatives of 3-acetyl-5-sec-butyl-4-hydroxy-3-pyrrolin-2-one” (priority 2012, dated 2016).

Key:
Crofton weed = test: Needle puncture pathogenic test on slightly wounded leaf of Crofton weed; format: in vivo; details: Crofton weed leaf, 50 μg/mL, 25° C., natural light
Method: 3-acetyl-5-sec-butyl-4-hydroxy-3-pyrrolin-2-one analogs were dissolved in a small amount of methanol and diluted with water to a concentration of 5-100 μg/g. A pathogenic test was conducted by placing the toxic liquid on the slightly wounded leaf of Crofton weed with a needle. The test has shown that the pathogenic capability of 3-acetyl-5-sec-butyl-4-hydroxy-3-pyrrolin-2-one analogs with respect to Crofton weed increases with the increase of concentration. The spot diameter caused on the leaf of Crofton weed after 24 hours was 2 mm at 50 μg/g.
3-acetyl-5-sec-butyl-4-hydroxy-3-pyrrolin-2-one analogue (Table 3, compounds 10-57) was dissolved in small amount of methanol. The solution was then diluted with distilled water to a concentration of 50 μg/mL. Methanol solution with same concentration and pure distilled water were used as control of the experiment. A pathogenic test was conducted by placing the toxic liquid on the slightly wounded leaf of Crofton weed with a needle. The experiment was carried out at 25° C. under the natural light and each test was repeated 6 times. It was measure the diameter of the spot after 24 h. […] The size of the side chain also has an effect on their activity.
Fourteen salts of 3-acetyl-5-sec-butyl-4-hydroxy-3-pyrrolin-2-one analogs were dissolved in small amount of methanol and diluted with distilled water to a concentration of 50 μg/mL. Methanol/water mixture was also prepared and used as control. Needle puncture method was used for the test on the small pieces of Crofton weed. Each treatment was repeated six times or more. The test samples were kept under natural light at 25° C. for 24 hours. The diameters of damaged spot of the plant leaves were measured by vernier caliper.

Hill reaction = Hill reaction activity of treated Crofton weed leaves; format: biochemical; details: 50 μg/mL, strong light 12 hours
Method: (§1) Compounds 10-57 were dissolved in small amount of methanol. The solutions were then diluted with distilled water to a concentration of 50 μg/mL. A mixture of methanol and water in the same ratio as the sample solution was also prepared and used as control in the experiment. The healthy leaves of Crofton weed were washed in water for 30 minutes and then rinsed with distilled water. The clean and tissue dried leaves were placed in petri dish with the back-side of the leaves facing up. Wet filter paper was also placed in the in petri dish for moisture control. Water, methanol and chemical solutions of the analogues were applied to the back-side of each leaf. Test sample was then placed in vacuum chamber at 25° C. for 15 min followed by exposure to the strong light (400 μM m^−2 s^−1) for 12 hours. The leaf sample went through a series of test, and the Hill reaction rate, the electron transfer activity and fluorescence of chlorophyll were measured. Four leaves were used for each treatment and each test was repeated three times.

photosystem II = test: PSII oxygen evolution / electron transfer activity of treated Crofton weed leaves; format: biochemical; details: 50 μg/mL, strong light 12 hours
Method: as §1

[1] = system: fluorescence of chlorophyll; test: Fluorescence of chlorophyll of treated Crofton weed leaves; format: biochemical; details: 50 μg/mL, strong light 12 hours
Method: as §1

Carpesium abrotanoides = test: Leaf piece damage test; format: in vivo; parameters: key: 4: The leaf completely dead; 3: Two third of the leaf withered; 2: One half of the leaf withered; 1: Only edge of the leaf withered; 0: Not damage at all; details: 50 μg/mL, 4 days
Method: (§2) Compounds 7, 14, 15, 16, 40, 45, 48 and 53 were dissolved individually in small amount of methanol, and diluted with distilled water to concentration of 50 μg/mL. Methanol water solution and pure water were used as control. A piece of 5 mm leaf was taken from the second leaf of weed sample and was treated with the solution three times. 5 pieces of the leaf were prepared for each treatment. The damage data were collected 4 days later. The measurement of damage level is described in the Table 9.
(§3) The measurement of the plant damage was calculated by the formula: Damage Index=Σ(damage level×number of plants)×100/4/number of plants in each treatment.

Cyperus difformis = test: Leaf piece damage test; format: in vivo; parameters: key: 4: The leaf completely dead; 3: Two third of the leaf withered; 2: One half of the leaf withered; 1: Only edge of the leaf withered; 0: Not damage at all; details: 50 μg/mL, 4 days
Method: as §2, §3

Erigeron annuus = test: Leaf piece damage test; format: in vivo; parameters: key: 4: The leaf completely dead; 3: Two third of the leaf withered; 2: One half of the leaf withered; 1: Only edge of the leaf withered; 0: Not damage at all; details: 50 μg/mL, 4 days
Method: as §2, §3

Eupatorium adenophorum = test: Leaf piece damage test; format: in vivo; parameters: key: 4: The leaf completely dead; 3: Two third of the leaf withered; 2: One half of the leaf withered; 1: Only edge of the leaf withered; 0: Not damage at all; details: 50 μg/mL, 4 days
Method: as §2, §3

Galeopsis bifida = test: Leaf piece damage test; format: in vivo; parameters: key: 4: The leaf completely dead; 3: Two third of the leaf withered; 2: One half of the leaf withered; 1: Only edge of the leaf withered; 0: Not damage at all; details: 50 μg/mL, 4 days
Method: as §2, §3

[2] = system: Parthenocissus tricuspidata; test: Leaf piece damage test; format: in vivo; parameters: key: 4: The leaf completely dead; 3: Two third of the leaf withered; 2: One half of the leaf withered; 1: Only edge of the leaf withered; 0: Not damage at all; details: 50 μg/mL, 4 days
Method: as §2, §3

Polygonum hydropiper = test: Leaf piece damage test; format: in vivo; parameters: key: 4: The leaf completely dead; 3: Two third of the leaf withered; 2: One half of the leaf withered; 1: Only edge of the leaf withered; 0: Not damage at all; details: 50 μg/mL, 4 days
Method: as §2, §3

Rumex japonicus = test: Leaf piece damage test; format: in vivo; parameters: key: 4: The leaf completely dead; 3: Two third of the leaf withered; 2: One half of the leaf withered; 1: Only edge of the leaf withered; 0: Not damage at all; details: 50 μg/mL, 4 days
Method: as §2, §3

Sonchus oleraceus = test: Leaf piece damage test; format: in vivo; parameters: key: 4: The leaf completely dead; 3: Two third of the leaf withered; 2: One half of the leaf withered; 1: Only edge of the leaf withered; 0: Not damage at all; details: 50 μg/mL, 4 days
Method: as §2, §3

Trifolium pretense = test: Leaf piece damage test; format: in vivo; parameters: key: 4: The leaf completely dead; 3: Two third of the leaf withered; 2: One half of the leaf withered; 1: Only edge of the leaf withered; 0: Not damage at all; details: 50 μg/mL, 4 days
Method: as §2, §3

Veronica didyma = test: Leaf piece damage test; format: in vivo; parameters: key: 4: The leaf completely dead; 3: Two third of the leaf withered; 2: One half of the leaf withered; 1: Only edge of the leaf withered; 0: Not damage at all; details: 50 μg/mL, 4 days
Method: as §2, §3

Wild oats = test: Leaf piece damage test; format: in vivo; parameters: key: 4: The leaf completely dead; 3: Two third of the leaf withered; 2: One half of the leaf withered; 1: Only edge of the leaf withered; 0: Not damage at all; details: 50 μg/mL, 4 days
Method: as §2, §3

Row | SMILES | Time of Disease spot (Crofton weed) | Average diameter of spot after 24 h (Crofton weed) | Activity of Hill Reaction (Hill reaction) | PSII Activity of oxygen evolution (photosystem II) | Fv/Fm [1] | Damage level (Carpesium abrotanoides) | Damage level (Cyperus difformis) | Damage level (Erigeron annuus) | Damage level (Eupatorium adenophorum) | Damage level (Galeopsis bifida) | Damage level [2] | Damage level (Polygonum hydropiper) | Damage level (Rumex japonicus) | Damage level (Sonchus oleraceus) | Damage level (Trifolium pretense) | Damage level (Veronica didyma) | Damage level (Wild oats)
1 | CCCCC1NC(=O)C(C(C)=O)=C1O (centres unmarked) [Compound 14] | 13.8 ± 0.54 h | 6.37 ± 0.04 mm | 67.37 uMO2/mgChlh | 34.01 uMO2/mgChlh | 0.79 | 2 | 3 | 3 | 3 | 2 | 2 | 2 | 1 | 3 | 3 | 3 | 3
2 | CCCCCC1NC(=O)C(C(C)=O)=C1O (centres unmarked) [Compound 15] | 9.5 ± 1.26 h | 9.61 ± 1.20 mm | 62.77 uMO2/mgChlh | 31.26 uMO2/mgChlh | 0.78 | 2 | 3 | 4 | 4 | 2 | 3 | 2 | 2 | 3 | 3 | 2 | 3
3 | CCCCCCC1NC(=O)C(C(C)=O)=C1O (centres unmarked) [Compound 16] | 13.80 ± 0.54 h | 7.61 ± 0.11 mm | 61.43 uMO2/mgChlh | 30.00 uMO2/mgChlh | 0.83 | 2 | 3 | 3 | 4 | 2 | 2 | 3 | 2 | 3 | 3 | 2 | 3
4 | CCCC(Cl)C1NC(=O)C(C(C)=O)=C1O (centres unmarked) [Compound 40] | 11.93 ± 0.66 h | 8.10 ± 0.90 mm | 46.20 uMO2/mgChlh | 24.00 uMO2/mgChlh | 0.82 | 3 | 3 | 3 | 4 | 3 | 2 | 2 | 2 | 3 | 3 | 2 | 3
5 | CCC(C)C1NC(=O)C(C(=O)CCF)=C1O (centres unmarked) [Compound 44] | 12.0 ± 1.33 h | 4.07 ± 0.51 mm | 59.15 uMO2/mgChlh | 40.75 uMO2/mgChlh | 0.79 | 3 | 3 | 4 | 4 | 3 | 3 | 3 | 3 | 3 | 4 | 3 | 3
6 | CCC(C)C1NC(=O)C(C(=O)CCc2cc(Cl)cc(Cl)c2)=C1O (centres unmarked) [Compound 48] | 13.5 ± 2.77 h | 4.33 ± 0.54 mm | – | – | – | 4 | 4 | 4 | 4 | 2 | 3 | 3 | 2 | 4 | 4 | 3 | 3
7 | CCCC(C#N)C1NC(=O)C(=C(C)O)C1=O (centres unmarked) [Compound 53] | 12.90 ± 0.27 h | 7.334 ± 0.845 mm | 42.72 uMO2/mgChlh | 32.12 uMO2/mgChlh | 0.79 | 2 | 3 | 3 | 4 | 3 | 3 | 3 | 3 | 4 | 4 | 3 | 3
